The results in this text go back to patent publication US20110300199A1, “PEPTIDES USED IN THE TREATMENT AND/OR CARE OF THE SKIN, MUCOUS MEMBRANES AND/OR SCALP AND THEIR USE IN COSMETIC OR PHARMACEUTICAL COMPOSITIONS” (LIPOTEC, S.A., priority 2009, published 2011).

Non-standard residues stand in square brackets, D forms with d. Phg = N[C@H](C(=O)O)c1ccccc1

T1 sequence (P00772 27-266): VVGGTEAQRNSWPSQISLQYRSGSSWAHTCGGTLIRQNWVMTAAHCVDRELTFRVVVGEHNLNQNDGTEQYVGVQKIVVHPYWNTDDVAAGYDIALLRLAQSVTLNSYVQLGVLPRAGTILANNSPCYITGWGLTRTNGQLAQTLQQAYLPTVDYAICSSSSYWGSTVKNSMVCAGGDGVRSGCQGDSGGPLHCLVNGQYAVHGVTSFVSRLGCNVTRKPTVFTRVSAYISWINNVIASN

One assay concerns the target T1, elastase (Sus scrofa, UniProt P00772).
T1 construct: purchased Molecular Probes
The assay can be described thus: Elastase inhibition assay (EnzChek Elastase Assay Kit, DQ Elastin substrate). The class given is biochemical. The conditions noted are these: peptides at 0.1 mM, pre-incubated 1 hour with 0.4 unit/mL elastase; DQ Elastin 25 μg/mL, 2 h; normalized to baseline. How it is done:
The peptides were resuspended in water in the presence of 0.5% DMSO. The assay was conducted on black microplates with 96 wells using the EnzChek® Elastase Assay Kit (Molecular Probes). For this purpose, the peptides were pre-incubated at 0.1 mM for 1 hour with 0.4 unit/mL of elastase at room temperature with moderate stirring, after which the conjugated substrate was added to fluorescein (DQ™ Elastin) at a final concentration of 25 μg/mL and reactions were incubated for 2 h at room temperature with stirring and protected from light. The substrate, whose fluorescence is inhibited, is digested by elastase to release fluorescent fragments which are monitored by fluorescence with a FLUOstar galaxy reader (BMG LabTechnologies) using 485 nm filters for excitation and 530 nm filters for emission.
Inhibition values were normalized with respect to baseline values of average inhibition.
As to Ac-L-Arg-Phg-L-Trp-Phg-NH—(CH2)15—CH3, the “Elastase inhibition percentage (% inhibition)” value came out at 53.7%.

Consider Ac-L-Arg-Phg-L-Trp-Phg-OH, for which the “Elastase inhibition percentage (% inhibition)” value is given as 90.3%.

For Ac-L-Arg-Phg-L-Val-Phg-OH, the “Elastase inhibition percentage (% inhibition)” value came to 82.3%.

In the case of Ac-L-Nle-Phg-L-Trp-Gly-OH, the “Elastase inhibition percentage (% inhibition)” value was 69.6%.

Turning to Ac-L-Nle-Phg-L-Trp-Phg-OH, the “Elastase inhibition percentage (% inhibition)” value is 90.0%.

Take Ac-L-Nle-Phg-L-Val-Gly-OH: the “Elastase inhibition percentage (% inhibition)” value is 62.7%.

As to Ac-L-Nle-Phg-L-Val-Phg-OH, the “Elastase inhibition percentage (% inhibition)” value came out at 73.8%.

As for Ac-Phg-L-Trp-Phg-OH, the “Elastase inhibition percentage (% inhibition)” value came out at 45.1%.

Turning to Ac-Phg-Phg-L-Trp-Gly-OH, the “Elastase inhibition percentage (% inhibition)” value is listed as 65.0%.

For Ac-Phg-Phg-L-Trp-Phg-OH, the “Elastase inhibition percentage (% inhibition)” value is 84.2%.

With Ac-Phg-Phg-L-Val-Phg-OH, the “Elastase inhibition percentage (% inhibition)” value turned out to be 76.1%.

Regarding Ac-R[Phg]VG-OH, the “Elastase inhibition percentage (% inhibition)” value amounted to 81.4%.

Take Ac-R[Phg]WG-OH: the “Elastase inhibition percentage (% inhibition)” value came out at 66.9%.

Consider Ac-[Phg][Phg]VG-OH, for which the “Elastase inhibition percentage (% inhibition)” value is 64.2%.

For Palm-L-Arg-Phg-L-Trp-Phg-NH2, the “Elastase inhibition percentage (% inhibition)” value came to 57.1%.

A further assay addresses T2, Human neutrophil elastase (Homo sapiens, UniProt P08246).
T2 sequence (P08246 30-267): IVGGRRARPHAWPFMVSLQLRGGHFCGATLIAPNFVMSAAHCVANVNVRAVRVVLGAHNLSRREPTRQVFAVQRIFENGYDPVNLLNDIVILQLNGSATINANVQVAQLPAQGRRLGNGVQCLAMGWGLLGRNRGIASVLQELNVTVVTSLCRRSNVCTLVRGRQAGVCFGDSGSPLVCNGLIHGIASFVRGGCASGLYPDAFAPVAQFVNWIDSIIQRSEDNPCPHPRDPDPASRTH
The assay can be described thus: Human elastase inhibition assay (fluorogenic substrate MeOSuc-Ala-Ala-Pro-Val aminomethyl coumarin). The format is biochemical. The note with it: 0.2 μg/ml protease, peptides 0.05-2 mM, 1 hour preincubation, substrate 25 μg/mL, 2 h; read-out: IC50 (minimum inhibitory concentration of peptides against human elastase). How it is done:
Human neutrophil elastase was reconstituted at 5 μg/mL in 50 mM sodium acetate, 200 mm NaCl, pH 5.5 buffer. 0.2 μg/ml of protease were preincubated with the peptides at a final concentration of 0.05-2 mM in a black microplate with 96 wells for 1 hour at room temperature. After preincubation, 25 μg/mL of substrate (MeOSuc-Ala-Ala-Pro-Val aminomethyl coumarin) were added to the wells and the samples were incubated for 2 h at room temperature and protected from light. The fluorescence released by digestion of the substrate was measured with an automated multiplate fluorescence reader, exciting at 370 nm and reading at 460 nm.
The results were corrected from the baseline fluorescence value in the absence of elastase and product, and were normalized with respect to the fluorescence of the control, and the minimum inhibitory concentration for each of the peptides was determined.
With H-L-Arg-Phg-L-Trp-Phg-OH, the IC50 was 103 µM.

On to H-L-Arg-Phg-L-Val-Gly-OH, for which the IC50 came out at 407 µM.

As to H-L-Arg-Phg-L-Val-Phg-OH, the IC50 turned out to be 94 µM.

The next assay relates to Human dermal fibroblasts. Kind of assay: Collagen synthesis stimulation assay (secreted Collagen Type I by ELISA). The class given is cell-based. The conditions noted are these: peptides at 15 μg/ml, 48 h, medium analysed by ELISA; normalized to vehicle negative control. How it is done: Human dermal fibroblasts were grown until confluence in MI06 medium supplemented with specific growth factors for fibroblasts. Then, they were strypsinized and seeded at 5×10^4 cells/well in 24-well plates. After 24 h of incubation at 37° C. in 5% CO2 atmosphere, fresh medium was added with scalar dilutions of the peptides at 15 μg/ml or with vehicle as negative control. Cells were incubated for 48 additional hours, after which medium was collected.
The analysis of the amount of secreted Collagen Type I was performed by means of an ELISA assay. Briefly, 96-well plated were coated with 50 μL per well of the previously collected medium and allowed to adsorb overnight at 4° C. in a humidified atmosphere. Then the plates were washed 3 times with PBS (+0.05% Tween-20) and blocked for 1 h with 3% BSA. After blocking, the plates were treated with an anti-Collagen Type I antibody (1:1000 in PBS, 0.05% Tween-20, 1% BSA) for 2 h. After this incubation, the secondary antibody (goat anti-mouse IgG-HRP antibody, Molecular Probes, 1:1000 in PBS, 0.05% Tween-20, 1% BSA) was added. Plates were incubated with […] substrate for 30 min and the reaction was stopped by adding 3 M H2SO4. Absorbance at 490 nm was read using a microplate reader and collagen concentration determined using a linear regression standard curve for Collagen Type I. Values were normalized in respect to the collagen values for the negative control experiment and the increase in the Collagen Type I was calculated for all the treatments.
For H-L-Arg-Phg-L-Trp-Phg-OH, the “Increase of Collagen Type I by treatment with the peptides” value (from here on “Increase of Collagen Type I by treatment”) was found to be 99%.

Take H-L-Arg-Phg-L-Val-Gly-OH: the “Increase of Collagen Type I by treatment” value stood at 16%.

With H-L-Arg-Phg-L-Val-Phg-OH, the “Increase of Collagen Type I by treatment” value is recorded as 18%.
